Results on 5 compounds are retold here after ChEMBL document CHEMBL4831528, “Discovery of Novel Pterostilbene-Based Derivatives as Potent and Orally Active NLRP3 Inflammasome Inhibitors with Inflammatory Activity for Colitis” (J Med Chem, 2021).

The source made the active and inactive calls. The calls are words filed in the database; no cut-off is given here.

A short description of series [1]: Hepatic clearance in human liver microsomes preincubated for 5 mins followed by NADPH addition and measured after 5 to 60 mins by LC-MS/MS analysis. The class given is ADME, Microsome. Particulars: time 5-60 min. In general terms: Liver microsomes are vesicles of endoplasmic reticulum, rich in cytochrome P450 enzymes.
Series [2] is described as follows: Intrinsic clearance in mouse liver microsomes preincubated for 5 mins followed by NADPH addition and measured after 5 to 60 mins by LC-MS/MS analysis. The class given is ADME, Microsome. Particulars: time 5-60 min, read-out: CLH.
Series [3] can be described thus: Half life in mouse liver microsomes preincubated for 5 mins followed by NADPH addition and measured after 5 to 60 mins by LC-MS/MS analysis. The class given is ADME, Microsome. As to conditions: time 5-60 min.
Series [4] in a line: Half life in human liver microsomes preincubated for 5 mins followed by NADPH addition and measured after 5 to 60 mins by LC-MS/MS analysis. The class given is ADME, Microsome.
Series [5] in a line: Hepatic clearance in mouse liver microsomes preincubated for 5 mins followed by NADPH addition and measured after 5 to 60 mins by LC-MS/MS analysis. Type of series: ADME, Microsome. As to conditions: time 5-60 min.
Series [6] in a line: Intrinsic clearance in human liver microsomes preincubated for 5 mins followed by NADPH addition and measured after 5 to 60 mins by LC-MS/MS analysis. The class given is ADME, Microsome. Particulars: time 5-60 min, read-out: CLH.
Series [7] is described as follows: Toxicity in C57BL/6 mouse assessed as effect on fur at 10 to 20 mg/kg, ig administered for 28 days. Type of series: organism-based. Particulars: in vivo, po, 672 h, dose 10-20 mg/kg, time 28 day.
The subject of series [8] is Mus musculus. Briefly: In vivo inhibition of NLRP3 inflammasome activation in C57BL/6 mouse assessed as reduction in MPO activity at 20 mg/kg, ig administered for 7 days by ELISA. Type of series: functional, organism-based. As to conditions: time 7.0 day. For orientation: In an ELISA, binding on a coated surface is turned into a signal by an enzyme label.
Series [9] can be described thus: Toxicity in C57BL/6 mouse assessed as reduction in survival rate at 20 mg/kg, ig administered for 28 days. Type of series: organism-based. As to conditions: in vivo, po, 672 h, time 28 day.
Series [10] addresses NACHT, LRR and PYD domains-containing protein 3 (Mus musculus) (UniProt Q8R4B8). Briefly: Inhibition of NLRP3 inflammasome activation in LPS-stimulated mouse J774A.1 cells assessed as inhibition of cell pyrolysis at 20 uM incubated for 1 hr followed by ATP addition and measured after 30 mins by Hoechst 33342/propidium iodide staining based high content screening method relative to control. As to conditions: J774.A1, time 1.5 hrs.

For series [11] the target is unchanged. Briefly: Inhibition of NLRP3 inflammasome activation in LPS-stimulated mouse J774A.1 cells assessed as inhibition of cell pyrolysis at 10 uM incubated for 1 hr followed by ATP addition and measured after 30 mins by Hoechst 33342/propidium iodide staining based high content screening method relative to control. As to conditions: J774.A1, time 1.5 hrs.
The nature of series [12]: Toxicity in C57BL/6 mouse assessed as effect on spirit at 10 to 20 mg/kg, ig administered for 28 days. As to conditions: in vivo, po, 672 h, dose 10-20 mg/kg, time 28 day. Type of series: organism-based.
For series [13], the system named is Mus musculus. Briefly: Protection against DSS-induced acute ulcerative colitis in C57BL/6 mouse assessed as reduction in adhesion of colon at 20 mg/kg, ig administered for 7 days. Type of series: functional, organism-based. Particulars: time 7.0 day.
Series [14] addresses NACHT, LRR and PYD domains-containing protein 3 (Mus musculus, UniProt Q8R4B8). Briefly: Inhibition of NLRP3 inflammasome activation in LPS-stimulated mouse bone marrow-derived macrophages assessed as reduction in IL-1beta secretion preincubated for 30 mins followed by nigericin addition and measured after 30 mins by ELISA. Type of series: tissue-based, Macrophage.
The next series deals with L02. Briefly: Cytotoxicity against human L-02 cells incubated for 24 hrs by MTT assay. Type of series: cell-based. Particulars: L02, 24 h. On the technique in general: Formazan colour is commonly taken as a measure of viable cells.
Series [15] can be described thus: Toxicity in C57BL/6 mouse assessed as effect on activity at 10 to 20 mg/kg, ig administered for 28 days. Type of series: organism-based. As to conditions: in vivo, po, 672 h, dose 10-20 mg/kg, time 28 day.
Series [16] can be described thus: Toxicity in C57BL/6 mouse assessed as effect on diet at 10 to 20 mg/kg, ig administered for 28 days. The class given is organism-based. Particulars: in vivo, po, 672 h, dose 10-20 mg/kg, time 28 day.
The test system of series [17] is Mus musculus. Briefly: Anti-inflammatory activity in C57BL/6 mouse DSS-induced acute ulcerative colitis assessed as reduction in disease index at 10 to 20 mg/kg, ig administered for 7 days. The class given is functional, organism-based. As to conditions: dose 10-20 mg/kg, time 7.0 day.
Series [18] concerns Mus musculus. Briefly: In vivo inhibition of NLRP3 inflammasome activation in C57BL/6 mouse assessed as reduction in MPO activity at 10 mg/kg, ig administered for 7 days by ELISA. Particulars: time 7.0 day. The class given is functional, organism-based.
Another series concerns Macrophage. Briefly: Inhibition of NFkappaB activation in LPS-stimulated mouse bone marrow-derived macrophages assessed as reduction in TNFalpha secretion preincubated for 30 mins followed by nigericin addition and measured after 30 mins by ELISA. The class given is tissue-based. As to conditions: time 60.0 min.

Chain of NACHT, LRR and PYD domains-containing protein 3 (Mus musculus) (Q8R4B8 whole entry, the tested form may be a part): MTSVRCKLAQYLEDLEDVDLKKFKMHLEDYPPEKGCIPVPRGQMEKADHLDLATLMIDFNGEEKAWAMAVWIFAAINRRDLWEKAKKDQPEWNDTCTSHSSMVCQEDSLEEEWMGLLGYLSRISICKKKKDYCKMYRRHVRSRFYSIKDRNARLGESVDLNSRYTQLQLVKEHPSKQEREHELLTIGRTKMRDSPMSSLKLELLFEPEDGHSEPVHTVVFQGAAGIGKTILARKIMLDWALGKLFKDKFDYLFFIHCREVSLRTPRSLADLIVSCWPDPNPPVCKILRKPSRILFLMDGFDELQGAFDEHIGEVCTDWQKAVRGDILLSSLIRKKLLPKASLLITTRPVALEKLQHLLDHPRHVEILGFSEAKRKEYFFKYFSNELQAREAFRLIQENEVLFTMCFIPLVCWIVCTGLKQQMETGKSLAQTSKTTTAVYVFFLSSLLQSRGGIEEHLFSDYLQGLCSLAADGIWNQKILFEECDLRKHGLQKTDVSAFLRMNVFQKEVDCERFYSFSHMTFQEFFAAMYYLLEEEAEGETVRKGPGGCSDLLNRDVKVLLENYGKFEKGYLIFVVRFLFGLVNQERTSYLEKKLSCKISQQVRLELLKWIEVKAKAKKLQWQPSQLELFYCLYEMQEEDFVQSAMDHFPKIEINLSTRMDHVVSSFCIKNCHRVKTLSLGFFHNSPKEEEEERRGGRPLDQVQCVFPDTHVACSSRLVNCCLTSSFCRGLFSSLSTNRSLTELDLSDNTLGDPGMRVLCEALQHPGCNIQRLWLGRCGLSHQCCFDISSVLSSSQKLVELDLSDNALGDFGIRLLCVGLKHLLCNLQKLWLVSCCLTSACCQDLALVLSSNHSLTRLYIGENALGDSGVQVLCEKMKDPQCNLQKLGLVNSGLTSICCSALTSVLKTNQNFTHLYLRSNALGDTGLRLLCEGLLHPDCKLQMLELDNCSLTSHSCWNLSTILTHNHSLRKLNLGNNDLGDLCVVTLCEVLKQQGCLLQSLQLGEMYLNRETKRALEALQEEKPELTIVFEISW
Chain of NACHT, LRR and PYD domains-containing protein 3 (Q8R4B8 whole entry, the tested form may be a part): as above

Usually half-life stands for how long it takes for the measured level to halve. Lower therefore signals rapid decline. `COc1ccc2c(c1)[C@]13CCCC[C@@H]1[C@H](C2)N(C)CC3` [DEXTROMETHORPHAN]: the CLhep predicted is 14.8 mL/min/kg in series [1] and 70.6 mL/min/kg in series [5]. In addition, the microsomal CLint amounted to 83.3 µL/min/mg in [2] and 44.5 µL/min/mg in [6]. The figures for the half-life in series [3] and in series [4] were 16.6 min and 31.2 min, respectively.

As a reminder, the inhibition is the change of the read-out against control, counted positive when it falls. One may read the IC50 as the concentration at which inhibition is half-maximal. `COc1cc(/C=C/c2ccc(N)cc2)c(/C=C/[N+](=O)[O-])c(OC)c1`: the Activity result in series [7], in series [9], in series [12], in [15] and in series [16] was “Toxic” each time. Also, in the series on Mus musculus [8], the inhibition entry is “inactive”. The inhibition in series [10] is 75.3%; in series [11] it was 54.7%. For the same compound, the result in the series with Mus musculus [13] and with Mus musculus [17] was Active. Further, the results for the half-inhibitory concentration (IC50) (in [14]; in the series with L02) were 1.37 µM and 85.1 µM, respectively. Moreover, the inhibition result in the series on Mus musculus [18] is “Active”.

As for `COc1cc(/C=C/c2ccc(O)cc2)cc(OC)c1` [PTEROSTILBENE], in [10], the inhibition worked out at 21.2%. The IC50 in series [14] is > 10 µM; with L02, > 100 µM. Besides, the inhibition result with Macrophage is “Active”.

In the case of `COc1cc(/C=C/c2ccc(O)cc2)c(/C=C/[N+](=O)[O-])c(OC)c1`, the results for the inhibition in series [10] and in series [11] were 31.5% and 13.3%, respectively. Also, the half-inhibitory concentration (IC50) in series [14] is > 10 µM; in the series with L02, > 100 µM.

On to `COc1cc(/C=C/c2ccc(OCC(=O)NCc3ccncc3)cc2)c(/C=C/[N+](=O)[O-])c(OC)c1`, for which the inhibition in [10] came out at 65.4%; in [11], 45.3%. Further, the half-inhibitory concentration (IC50) in series [14] was found to be 7.68 µM; in the series on L02 it was 63 µM.
